Reference: patent US8946203B2, “Benzodioxane inhibitors of leukotriene production” (Boehringer Ingelheim International GmbH, priority 2012, dated 2015)

target: T1, human LTA4 hydrolase (Homo sapiens, UniProt P09960); assay: LTA4H Enzyme assay (cleavage of Arg-AMC, fluorescence); format: biochemical; conditions: not given
T1 sequence (P09960 1-611): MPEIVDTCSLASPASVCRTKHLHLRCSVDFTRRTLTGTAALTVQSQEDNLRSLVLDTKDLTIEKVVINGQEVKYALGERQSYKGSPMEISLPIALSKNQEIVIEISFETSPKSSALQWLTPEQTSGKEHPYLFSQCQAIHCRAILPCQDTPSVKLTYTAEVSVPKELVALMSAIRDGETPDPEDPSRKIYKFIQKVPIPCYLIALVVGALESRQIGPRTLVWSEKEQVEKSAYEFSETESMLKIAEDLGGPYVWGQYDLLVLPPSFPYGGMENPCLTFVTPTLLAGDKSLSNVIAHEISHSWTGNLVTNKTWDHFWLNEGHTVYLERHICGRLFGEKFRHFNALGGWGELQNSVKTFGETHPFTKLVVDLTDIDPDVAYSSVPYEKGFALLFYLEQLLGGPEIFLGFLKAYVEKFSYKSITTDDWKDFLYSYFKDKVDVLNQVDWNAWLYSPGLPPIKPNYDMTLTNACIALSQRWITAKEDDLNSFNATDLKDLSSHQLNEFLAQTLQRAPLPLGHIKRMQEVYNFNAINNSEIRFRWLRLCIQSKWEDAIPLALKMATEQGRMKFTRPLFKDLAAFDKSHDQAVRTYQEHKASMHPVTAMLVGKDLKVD
Description: The compounds of the invention are assessed for the ability to interact with human LTA4 hydrolase in an enzymatic assay that measures the ability of the enzyme to cleave the peptide bond of arginyl-aminomethylcoumarin (Arg-AMC). LTA4H Enzyme (1 nM final), Arg-AMC substrate (50 μM final), and compound are combined in a reaction buffer (50 mM Tris-HCl (pH 7.5), 100 mM KCl, 0.5% bovine serum albumin) at room temperature for 1 h. The formation of product is assessed by measuring the fluorescence of aminomethylcoumarin product (excitation wavelength 380 nm/emission wavelength 460 nm).

| Structure (SMILES) | IC50 [nM] |
| --- | --- |
| CN(C)CCN(C)Cc1ccc([C@H]2COc3ccccc3O2)cc1 [Example 79, N-{4-[(2S)-2,3-dihydro-1,4-benzodioxin-2-yl]benzyl}-N,N′,N′-trimethylethane-1,2-diamine] | 0.51 |

same assay, conditions: LTA4H Enzyme 1 nM, Arg-AMC substrate 50 μM, room temperature 1 h, fluorescence; read-out: IC50 values of LTA4H Enzyme assay

| IC50 [nM] | Structure (SMILES) |
| --- | --- |
| 4.43 | OC(C1CCN(Cc2ccc([C@H]3COc4ccccc4O3)cc2)CC1)C(F)(F)F (stereo partly drawn) [Example 21, 1-(1-{4-[(2S)-2,3-dihydro-1,4-benzodioxin-2-yl]benzyl}piperidin-4-yl)-2,2,2-trifluoroethanol] |
| 0.87 | CN1CC(NCc2ccc([C@H]3COc4ccccc4O3)cc2)CCC1=O (stereo partly drawn) [Example 108, 5-({4-[(2S)-2,3-dihydro-1,4-benzodioxin-2-yl]benzyl}amino)-1-methylpiperidin-2-one] |
| 0.71 | OCCN(Cc1ccc([C@H]2COc3ccccc3O2)cc1)C1CCCCC1 [Example 80, 2-(cyclohexyl{4-[(2S)-2,3-dihydro-1,4-benzodioxin-2-yl]benzyl}amino)ethanol] |
| 0.36 | c1cnc2c(c1)OCC(c1ccc(CN3CCCC3)cc1)O2 (racemic) [Example 15, 3-[4-(pyrrolidin-1-ylmethyl)phenyl]-2,3-dihydro[1,4]dioxin[2,3-b]pyridine] |
| 3.63 | Cn1cnc(CNCc2ccc(C3COc4ccccc4O3)cc2)c1 (racemic) [Example 55, 1-[4-(2,3-dihydro-1,4-benzodioxin-2-yl)phenyl]-N-[(1-methyl-1H-imidazol-4-yl)methyl]methanamine] |
| 0.74 | O=C1NCCC12CCN(Cc1ccc(C3COc4ccccc4O3)cc1)CC2 (racemic) [Example 4, 8-[4-(2,3-dihydro-1,4-benzodioxin-2-yl)benzyl]-2,8-diazaspiro[4.5]decan-1-one] |
| 0.15 | O=C(O)c1cccc(CN2CCN(Cc3ccc([C@H]4COc5ccccc5O4)cc3)CC2)c1 [Example 239, 3-{4-[(S)-4-(2,3-Dihydro-benzo[1,4]dioxin-2-yl)-benzyl]-piperazin-1-ylmethyl}-benzoic acid] |
| 0.19 | NC(=O)C1CCN(Cc2ccc([C@H]3COc4cccnc4O3)cc2)CC1 [Example 206, 1-{4-[(3S)-2,3-dihydro[1,4]dioxino[2,3-b]pyridin-3-yl]benzyl}piperidine-4-carboxamide] |
| 0.29 | O=C(O)c1ccc(CC2CCN(Cc3ccc([C@H]4COc5ccccc5O4)cc3)CC2)cc1 [Example 231, 4-{1-[(S)-4-(2,3-Dihydro-benzo[1,4]dioxin-2-yl)-benzyl]-piperidin-4-ylmethyl}-benzoic acid] |
| 0.26 | O=C1NC(=O)C2(CCN(Cc3ccc(C4COc5ccccc5O4)cc3)CC2)N1 (racemic) [Example 35, 8-[4-(2,3-dihydro-1,4-benzodioxin-2-yl)benzyl]-1,3,8-triazaspiro[4.5]decan-2,4-dione] |
| 1.14 | CN(C)C(=O)CC1CCN(Cc2ccc(C3COc4ccccc4O3)cc2)CC1 (racemic) [Example 38, 2-{1-[4-(2,3-dihydro-1,4-benzodioxin-2-yl)benzyl]piperidin-4-yl}-N,N-dimethylacetamide] |
| 1.36 | CC(C)(C)C(CC(=O)O)NCc1ccc([C@H]2COc3ccccc3O2)cc1 (stereo partly drawn) [Example 58, 3-({4-[(2S)-2,3-dihydro-1,4-benzodioxin-2-yl]benzyl}amino)-4,4-dimethylpentanoic acid] |
| 4.51 | CN(C)Cc1ccc([C@H]2COc3ccccc3O2)cc1 [Example 75, 1-{4-[(2S)-2,3-dihydro-1,4-benzodioxin-2-yl]phenyl}-N,N-dimethylmethanamine] |
| 0.21 | c1cnc2c(c1)OC[C@H](c1ccc(CN3CCCOCC3)cc1)O2 [Example 150, (3S)-3-[4-(1,4-oxazepan-4-ylmethyl)phenyl]-2,3-dihydro[1,4]dioxino[2,3-b]pyridine] |
| 1.89 | O[C@@H]1CCN(Cc2ccc(C3COc4ccccc4O3)cc2)C1 (mixture of isomers) [Example 34, (3R)-1-[4-(2,3-dihydro-1,4-benzodioxin-2-yl)benzyl]pyrrolidin-3-ol] |
| 43 | CC(c1ccc([C@H]2COc3ccccc3O2)cc1)N1CCOCC1 (stereo partly drawn) [Example 226, 4-(1-{4-[(2S)-2,3-dihydro-1,4-benzodioxin-2-yl]phenyl}ethyl)morpholine] |
| 1.77 | CN1CCCN(Cc2ccc(C3COc4ccccc4O3)cc2)CC1 (racemic) [Example 30, 1-[4-(2,3-dihydro-1,4-benzodioxin-2-yl)benzyl]-4-methyl-1,4-diazepane] |
| 0.55 | CCN(Cc1ccc([C@H]2COc3ccccc3O2)cc1)Cc1cccc(C(=O)O)c1 [Example 238, 3-{[{4-[(2S)-2,3-dihydro-1,4-benzodioxin-2-yl]benzyl}(ethyl)amino]methyl}benzoic acid] |

| IC50 [nM] | Structure (SMILES) |
| --- | --- |
| 0.19 | NC(=O)C1CCCN(Cc2ccc([C@H]3COc4cccnc4O3)cc2)C1 (stereo partly drawn) [Example 136, 1-{4-[(3S)-2,3-dihydro[1,4]dioxin[2,3-b]pyridin-3-yl]benzyl}piperidine-3-carboxamide] |
| 0.91 | O=C1CCN(Cc2ccc([C@H]3COc4cccnc4O3)cc2)CCN1 [Example 132, 1-{4-[(3S)-2,3-dihydro[1,4]dioxino[2,3-b]pyridin-3-yl]benzyl}-1,4-diazepan-5-one] |
| 4.42 | c1ccc2c(c1)OCC(c1ccc(CNCC3CC3)cc1)O2 (racemic) [Example 43, 1-cyclopropyl-N-[4-(2,3-dihydro-1,4-benzodioxin-2-yl)benzyl]methanamine] |
| 0.37 | O=C(CO)NC1CCN(Cc2ccc([C@H]3COc4ccccc4O3)cc2)CC1 [Example 218, N-{1-[(S)-4-(2,3-Dihydro-benzo[1,4]dioxin-2-yl)-benzyl]-piperidin-4-yl}-2-hydroxy-acetamide] |
| 1.4 | OC1CCCN(Cc2ccc([C@H]3COc4ccccc4O3)cc2)C1 (stereo partly drawn) [Example 78, 1-{4-[(2S)-2,3-dihydro-1,4-benzodioxin-2-yl]benzyl}piperidin-3-ol] |
| 2.94 | Fc1ccc2c(c1)OC(c1ccc(CN3CCCC3)cc1)CO2 (stereo not shown) [Example 203, 1-[4-(7-Fluoro-2,3-dihydro-benzo[1,4]dioxin-2-yl)-benzyl]-pyrrolidine] |
| 12.4 | O=C1OCCN1Cc1ccc(C2COc3cccnc3O2)cc1 (stereo not shown) [Example 209, 3-[4-(2,3-dihydro[1,4]dioxino[2,3-b]pyridin-3-yl)benzyl]-1,3-oxazolidin-2-one] |
| 0.24 | CS(=O)(=O)NC1CCN(Cc2ccc([C@H]3COc4ccccc4O3)cc2)CC1 [Example 176, N-(1-{4-[(2S)-2,3-dihydro-1,4-benzodioxin-2-yl]benzyl}piperidin-4-yl)methanesulfonamide] |
| 19 | NCc1ccc(C2COc3cccnc3O2)cc1 (stereo not shown) [Example 210, 4-(2,3-Dihydro-[1,4]dioxino[2,3-b]pyridin-3-yl)-benzylamine] |
| 0.12 | O=C(C1CCN(Cc2ccc([C@H]3COc4ccccc4O3)cc2)CC1)N1CCOCC1 [Example 180, (1-{4-[(2S)-2,3-dihydro-1,4-benzodioxin-2-yl]benzyl}piperidin-4-yl)(morpholin-4-yl)methanone] |
| 0.042 | O=C(O)CCCC1CCN(Cc2ccc([C@H]3COc4ccccc4O3)cc2)CC1 [Example 181, 4-(1-{4-[(2S)-2,3-dihydro-1,4-benzodioxin-2-yl]benzyl}piperidin-4-yl)butanoic acid] |
| 0.39 | c1ccc2c(c1)OC[C@H](c1ccc(CN3CCCC3)cc1)O2 (single isomer, unassigned) [Example 196] |
| 3.19 | COCCN(C)Cc1ccc(C2COc3ccccc3O2)cc1 (racemic) [Example 33, N-[4-(2,3-dihydro-1,4-benzodioxin-2-yl)benzyl]-2-methoxy-N-methylethanamine] |
| 0.32 | CN(C)C(=O)C1CCN(Cc2ccc([C@H]3COc4ccccc4O3)cc2)CC1 [Example 8, 1-{4-[(2S)-2,3-dihydro-1,4-benzodioxin-2-yl]benzyl}-N,N-dimethylpiperidine-4-carboxamide] |
| 0.65 | COCC(=O)N1CCCC12CCN(Cc1ccc([C@H]3COc4ccccc4O3)cc1)C2 (stereo partly drawn) [Example 128, 1-(7-{4-[(2S)-2,3-dihydro-1,4-benzodioxin-2-yl]benzyl}-1,7-diazaspiro[4.4]non-1-yl)-2-methoxyethanone] |
| 0.23 | O=C1CCC2(CCN(Cc3ccc([C@H]4COc5ccccc5O4)cc3)C2)N1 (stereo partly drawn) [Example 117, 7-{4-[(2S)-2,3-dihydro-1,4-benzodioxin-2-yl]benzyl}-1,7-diazaspiro[4.4]nonan-2-one] |
| 0.45 | c1ccc2c(c1)OC[C@H](c1ccc(CN3CCC[C@H]4CCCC[C@@H]43)cc1)O2 [Example 85, (4aR,8aS)-1-{4-[(2S)-2,3-dihydro-1,4-benzodioxin-2-yl]benzyl}decahydroquinoline] |

| Structure (SMILES) | IC50 [nM] |
| --- | --- |
| NC1CCN(Cc2ccc([C@H]3COc4ccccc4O3)cc2)CC1 [Example 217, 1-[(S)-4-(2,3-Dihydro-benzo[1,4]dioxin-2-yl)-benzyl]-piperidin-4-ylamine] | 2.28 |
